Measurements published in PubChem BioAssay (NCI).
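In this assay, cells in 96-well plates receive the compound at five concentrations for 48 hours. Endpoints are linearly interpolated between the surrounding concentrations. Here, GI50 denotes the concentration required for 50% inhibition of growth. TGI denotes the concentration required for complete inhibition of growth.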

What was measured:
Test in all cases: NCI-60 cell line screen, 48 h
SK-MEL-2 melanoma = system: SK-MEL-2 melanoma
SN12C renal = system: SN12C renal
DU-145 prostate = system: DU-145 prostate
SNB-19 CNS = system: SNB-19 CNS
UACC-257 melanoma = system: UACC-257 melanoma
NCI/ADR-RES ovarian = system: NCI/ADR-RES ovarian
OVCAR-5 ovarian = system: OVCAR-5 ovarian
MALME-3M melanoma = system: MALME-3M melanoma
IGROV1 ovarian = system: IGROV1 ovarian
786-0 renal = system: 786-0 renal

| Structure (SMILES) | GI50 (SK-MEL-2 melanoma) [µM] | TGI (SK-MEL-2 melanoma) [µM] | GI50 (SN12C renal) [µM] | TGI (SN12C renal) [µM] | GI50 (DU-145 prostate) [µM] | TGI (DU-145 prostate) [µM] | GI50 (SNB-19 CNS) [µM] | TGI (SNB-19 CNS) [µM] | GI50 (UACC-257 melanoma) [µM] | TGI (UACC-257 melanoma) [µM] | GI50 (NCI/ADR-RES ovarian) [µM] | TGI (NCI/ADR-RES ovarian) [µM] | GI50 (OVCAR-5 ovarian) [µM] | TGI (OVCAR-5 ovarian) [µM] | GI50 (MALME-3M melanoma) [µM] | TGI (MALME-3M melanoma) [µM] | GI50 (IGROV1 ovarian) [µM] | TGI (IGROV1 ovarian) [µM] | GI50 (786-0 renal) [µM] | TGI (786-0 renal) [µM] |
| --- | --- | --- | --- | --- | --- | --- | --- | --- | --- | --- | --- | --- | --- | --- | --- | --- | --- | --- | --- | --- |
| Cc1nc(-c2ccccc2)n2nc(NCCCN3CCOCC3)ncc12 | 10.5 | > 25 | > 25 | > 25 | 22.7 | > 25 | > 25 | > 25 | > 25 | > 25 | > 25 | > 25 | > 25 | > 25 | > 17.9 | > 25 | 13.8 | > 25 | > 25 | > 25 |
| Cc1ncc(C(=O)Nc2ccc(CN3CCN(C)CC3)c(C(F)(F)F)c2)cc1C#Cc1cnc2cccnn12 | 0.335 | 1.54 | 0.288 | 3.94 | 0.413 | 2.17 | 1.22 | 5.63 | 0.531 | 4.43 | 0.997 | 4.09 | 0.335 | 5.84 | 0.0895 | 0.355 | 0.268 | 4.45 | 1.05 | 3.16 |
| COC(=O)C1C(O)CCC2CN3CCc4c([nH]c5ccccc45)C3CC21 (stereo not given) |  | > 100 |  | > 100 |  | > 100 | > 100 | > 100 |  | > 100 |  | > 100 |  | > 100 |  | > 100 |  | > 100 |  | > 100 |
| Cn1c(C(=O)c2ccncc2)cc2ccccc21 | > 100 | > 100 | > 100 | > 100 | > 100 | > 100 | > 100 | > 100 | > 100 | > 100 | 46.8 | > 100 | > 100 | > 100 | > 100 | > 100 | > 100 | > 100 | > 100 | > 100 |
| CC(C)CCC[C@@H](C)[C@H]1CC[C@H]2[C@@H]3CC[C@H]4C[C@@H](CCC=C(c5cc(Cl)c(O)c(C(=O)O)c5)c5cc(Cl)c(O)c(C(=O)O)c5)CC[C@]4(C)[C@H]3CC[C@]12C |  | > 100 |  | > 100 |  | > 100 |  | > 100 |  | > 100 |  | > 100 |  | > 100 |  | > 100 |  | > 100 |  | > 100 |
| CN(C)CCNc1ccc(CO)c2sc3ccc(O)cc3c(=O)c12 |  | 11.6 |  | 15.4 |  | 4.05 |  | 11.9 |  | 15.7 |  | 17.2 |  | 14.6 |  | 9.81 |  | 16.4 |  | 9.37 |
| O=C1/C(=C/c2cccc(Br)c2)COc2ccc(O)cc21 | 3.79 | 14.2 | 1.85 | 4.28 | 4.48 | 16.5 | 2.43 | 7.47 | 3.93 | 15.9 | 3.24 | 13.5 | 3.72 | 14.5 | 2.36 | 6.65 | 1.92 | 4.75 | 2.08 | 5.43 |
| CC(=O)c1ccc2c(c1)C1C=CCC1[C@H](c1cc3c(cc1Br)OCO3)N2 (stereo not given in full) | 1.22 | 12.4 | 1.64 | > 33 | 0.893 | 4.44 | 1.87 | 33.2 | 5.34 | 27 | 1.33 | 4.71 | 3.01 | > 38.8 | 0.86 | 45.8 | 1.63 | > 64.9 | 1.53 | 15.3 |
| COc1ccc2c(=O)cc(-c3ccccc3)[nH]c2c1 |  | > 100 | 3.16 | > 100 | 1.24 | > 53.1 | 1.75 | > 100 | 0.335 | > 100 | 0.547 | 6.15 | 22.2 | > 100 | 0.684 | > 100 | 0.578 | > 100 | 4.56 | > 100 |
| O=C1c2ccccc2-[n+]2ccc3c([nH]c4ccccc43)c21 |  | 0.427 |  | 0.687 |  | 2.54 |  | 2.27 |  | 1.88 |  | 4.61 |  | 1.48 |  | 0.181 |  | 0.671 |  | 2.58 |
| O=c1c2cc(F)ccc2sc2c(N3CCNCC3)nc3ccc(F)cc3c12 | 1.84 | 3.53 | 1.58 | 3.05 | 1.68 | 3.09 | 1.69 | 3.2 | 1.88 | 3.7 | 1.75 | 3.44 | 1.66 | 3.07 | 1.59 | 3.06 | 1.34 | 2.74 | 1.49 | 2.98 |
| COc1cc(F)c(F)c(Nc2ccc(I)cc2F)c1NS(=O)(=O)C1(C[C@H](O)CO)CC1 | 0.0416 | > 2.01 | 1.9 | > 10 | 5.02 | > 10 | 1.83 | > 10 | 0.0239 | 0.2 | > 5.58 | > 10 | 0.0597 | > 10 | 0.0198 | 0.22 | 0.223 | > 5.56 | > 4.02 | > 10 |
| CC[n+]1oc(C(=O)c2ccc(Cl)cc2)c(-c2ccccc2)c1-c1ccccc1.[Cl][Fe]([Cl])([Cl])[Cl] | 30.8 | 85.9 | 83.5 | > 100 | 18.9 | 75 | > 100 | > 100 |  | 15.5 | > 100 | > 100 | 82.4 | > 100 | 39.7 | > 100 |  |  | 91.8 | > 100 |
| COc1cccc(/C(C#N)=C/c2nc3c(N4CCOCC4)nc(Cl)nc3n2C)c1 | 1.4 | 2.81 | 1.1 | 2.45 | 1.29 | 2.58 |  |  | 1.41 | 2.9 | 2.31 | 9.31 | 1.55 | 3.57 | 1.57 | 2.97 | 1.2 | 2.49 | 1.59 | 3.05 |
